What was measured:
BRD4 BD2 = BRD4 BD2 (Homo sapiens, UniProt O60885); test: TR-FRET binding assay, BRD4 BD2
BRD4 at HIV 5'-LTR = test: CHIP-qPCR, BRD4 binding to HIV promoter; assay type: cell-based; conditions: activated and resting J-Lat, vs no compound control
CDK9 binding to BRD4 = CDK9 binding to BRD4 (Homo sapiens, UniProt O60885); test: BRD4 Co-IP, CDK9 binding, J-Lat cells; assay type: cell-based; conditions: vs PMA alone, 24 hours
J-Lat cells = test: J-Lat cell viability (Aqua blue, flow cytometry)
[1] = system: non-specific cellular proteins; test: Binding to a broader panel of non-specific cellular proteins
[2] = system: HIV in unactivated human CD4 T cells; test: HIV in un-activated (resting) CD4 T cells (intracellular p24); assay type: cell-based; conditions: 2 μM and 4 μM, Day 6
Experimental: We also evaluated the impact of ZL0580 on HIV in un-activated (resting) CD4 T cells. Normal PBMCs were not stimulated but directly infected with HIV by spinoculation. 24 hours after HIV infection, cells were extensively washed and treated with ZL0580 (2 μM and 4 μM) or not (NC). As expected, compared to activated cells, HIV replication kinetics in un-activated CD4 T cells is slower.

ELL2 = ELL2 protein (WB) and mRNA (Q-PCR) in J-Lat cells; assay type: cell-based; conditions: vs PMA alone, WT J-Lat, 24 hours
Experimental: (§1) Target protein expression in WT and BRD4-KO J-Lat cells (10.6 full length) were measured by western blotting. […] The cells were harvested, washed and then lysed in NP-40 cell lysis buffer (containing 20 mM Tris-HCl, […] of NaCl, 0.2 mM EDTA, 1% NP40, protease inhibitor cocktail, and 1 mM PMSF) by rotation at RT for 1 hour. Cell lysates were centrifuged at 4° C. and the supernatants were collected, followed by measurement of total protein concentration in the supernatants by using Microplate BCA Protein Assay Kit. 20 μg proteins were separated using SDS-PAGE gel and then transferred to Immuno-Blot PVDF Membrane. The membrane was blocked (5% skimmed milk powder in TBST) and then incubated with individual protein-specific antibodies (CDK9, Cyclin T1, Cyclin T2, ELL2, p-RNA Pol II-CTD (Ser2), BRD2, BRD4, NF-κB, or cellular GAPDH) for overnight at 4° C. After washing three times in TBST, the membrane was incubated with anti-rabbit or anti-mouse IgG-HRP, depending on the primary antibody used. The membrane was incubated in Super Signal West Pico Chemiluminescent Substrate. Molecular weights of target proteins were assessed by comparing with markers.

human PBMCs = assay type: cell-based
[3] = system: HIV in BRD4-KO J-Lat cells; assay type: cell-based
Tat at HIV 5'-LTR = test: CHIP-qPCR, Tat recruitment to HIV promoter; assay type: cell-based; conditions: J-Lat, 10 μM, 24 hours
Experimental: ChIP assay was performed using a ChIP-IT Express Kit (Active Modify, USA) according to the manufacturer's instructions. […] Cells were harvested and washed. Cell pellets were re-suspended in 10 ml PBS buffer and fixed with 37% formaldehyde to cross-link DNA and proteins. The fixation reaction was stopped by adding 1.1 ml of 10× Glycine for 5 min at RT. Cells were centrifuged and the supernatants were removed, followed by re-suspension of cells in ice-cold Lysis Buffer on ice for 30 min. Cells were centrifuged at 5,000 rpm for 10 min to pellet the nuclei. Nuclei pellets were re-suspended in 700 μl shearing buffer plus 3.2 μl of PIC and 3.2 μl of PMSF, and were then sonicated using the determined conditions. Sheared chromatin samples were used to set up ChIP reactions by adding the magnetic beads and 5 μg of anti-Tat (1 mg/ml, Thermo Fisher, MA1-71509) or control mouse IgG (2.5 mg/ml, Cell Signaling, #5415) antibody (overnight rotation at 4° C.). After several times of washing by ChIP buffers 2, the chromatin was reverse cross-linked and treated with proteinase K. The eluted DNA were cleaned up with phenol-chloroform and used in real time-PCR. The results were analyzed by the fold enrichment method with the formula % enrichment=2−(CT IP−CT mock).

[4] = system: HIV LTR chromatin in J-Lat cells; test: High-resolution MNase nucleosomal mapping of HIV LTR; assay type: cell-based; conditions: 10 μM 24 hours, then PMA 24 hours, vs NC
[5] = system: HIV transcription in J-Lat cells; test: qPCR of HIV RNAs (Gag, 3'-LTR) in J-Lat cells; assay type: cell-based; conditions: for HIV mRNAs (Gag and 3'-LTR RNA levels): PMA-activated J-Lat, 24 hours after treatment
RV254 PBMCs = test: Viability of RV254 PBMCs; assay type: cell-based, human; conditions: vs ART alone or NC
[6] = system: HIV particles from RV21 PBMC; test: HIV particles in culture supernatants, reporter TZM-bl assay; assay type: cell-based; conditions: vs no treatment control
From the text: We next assessed assess the HIV-suppressive activity of ZL0580 ex vivo. RV21 is ART naïve, chronic HIV infection established by US MHRP and use of PBMC samples from this cohort in our group has been previously published (25). PBMC from RV21 subjects (n=8) were stimulated with PHA to induce HIV transcriptional activation in the absence (0 Mm) or presence of ZL0580 ([…]).

HIV in human PBMCs = test: qPCR of HIV DNA and Gag RNA in in vitro infected PBMCs; assay type: cell-based; conditions: PHA-activated PBMCs, 4 μM
[7] = system: HIV (US-1 strain) in human CD4 T cells; assay type: cell-based; conditions: for HIV infection in activated CD4 T cells (intracellular p24): 0-8 μM, three days after viral exposure
CDK9 binding to Tat = test: Tat Co-IP, CDK9 binding, J-Lat cells; assay type: cell-based; conditions: vs PMA alone, 24 hours
Experimental: Treated J-Lat cells were harvested, washed and lysed in 1 ml NP-40 cell lysis buffer as described above in western blotting. The lysate was cleared by centrifugation and the supernatant was collected. Protein concentration in collected supernatant was measured (Microplate BCA Protein Assay Kit). Equal amounts of proteins from different treatments were incubated with […] of anti-Tat (Thermo Fisher, Cat. No. MA1-71509) or anti-BRD4 (Thermo Fisher, Cat. No. 730037) antibody or normal mouse IgG (Cell Signaling, Cat. No. 5415) for overnight at 4° C. The immune complexes were precipitated by 50 μl protein G-conjugated magnetic beads (Thermo Fisher, Cat. No. 10003D). Beads were washed 6 times using cold NP-40 cell lysis buffer and then subjected to SDS-PAGE electrophoresis. The membranes were immunoblotted with anti-CDK9 primary antibody, followed by incubation with HRP-conjugated secondary antibody.

[8] = target: T1, non-BET bromodomain protein CBP (Homo sapiens, UniProt Q92793); test: TR-FRET binding assay, CBP
T1 construct: purchased Cayman Chemical
Experimental: A series of concentrations of the compound from 0.01 nM to 100 μM were added into a 384 well test plate and mixed with other reaction components based on the instructions from vendor followed by incubation 1 h at room temperature. […] The plates were read in time-resolved format by exciting the sample at 340 nm and reading emissions at 620 and 670 nm, using a 100 μs delay and a 500 μs window at a Tecan M1000 pro reader.

RNAPII = test: Western blot of phosphorylated RNAPII (Ser 2 CTD) in J-Lat cells; assay type: cell-based; conditions: vs PMA alone
Experimental: as §1

BRD4 BD1 domain = BRD4 BD1 domain (Homo sapiens, UniProt O60885); test: TR-FRET binding assay, BRD4 BD1
[9] = system: HIV transcription in PBMC of HIV-infected subjects; test: Ex vivo HIV Gag RNA in PBMCs of viremic HIV-infected subjects (RV21); assay type: cell-based; conditions: 2 days
[10] = system: PMA-induced HIV activation in J-Lat cells (10.6); test: HIV-suppression model, PMA-stimulated J-Lat cells (GFP, flow cytometry); assay type: cell-based; conditions: 24 hours; for effect on PMA-induced HIV activation (GFP+%): PMA + compound 10 μM
[11] = system: latent HIV in J-Lat cells (10.6); test: HIV-activation screening in J-Lat cells (GFP, flow cytometry); assay type: cell-based; conditions: compound alone, 10 μM, 24 hours
[12] = system: BD1 and BD2 of BET proteins (BRD4, BRD2, BRD3, BRDT); test: TR-FRET binding to BD1 and BD2 of BET proteins
From the text: Details are available in the Supplementary Methods.

T1 sequence (Q92793 1085-1192 limits assumed): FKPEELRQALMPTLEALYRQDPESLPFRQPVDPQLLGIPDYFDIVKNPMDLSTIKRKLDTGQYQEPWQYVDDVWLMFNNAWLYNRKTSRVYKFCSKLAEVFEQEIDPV

O=C(Nc1ccc(C(F)(F)F)cc1)Nc1ccc(S(=O)(=O)N2CCCC2C(=O)Nc2ccccc2)cc1 (stereo in doubt) [ZL0580, (R)—N-Phenyl-1-((4-(3-(4-(trifluoromethyl)phenyl)ureido)phenyl)sulfonyl)pyrrolidine-2-carboxamide]
IC50 (BRD4 BD2): 1070 nM
BRD4 binding to HIV promoter (BRD4 at HIV 5'-LTR): promoted BRD4 binding to HIV promoter
CDK9 binding to BRD4 (CDK9 binding to BRD4): enhanced CDK9 binding to BRD4
concentrations without significant cell death (J-Lat cells; 0-80 μM, 1 & 3 days): below 40 μM
cell death vs NC (J-Lat cells; 10 μM, Day 2, 7 and 14, PMA-activated and un-stimulated): did not cause significant cell death
binding activity to non-specific cellular proteins [1]: no or weak binding activity
HIV in unactivated CD4 T cells (p24+%) [2]: dose-dependently suppresses HIV in unactivated CD4 T cells
ELL2 protein (ELL2): substantially reduced ELL2 protein
concentrations without significant PBMC death (human PBMCs; 0-80 μM): below 40 μM
PBMC viability (human PBMCs; 8 μM vs NC, PHA-activated, 3 days): comparable between NC and ZL0580 treatment
Gag and 3'-LTR RNA expression, vector control cells [3]: substantially inhibit Gag and 3′-LTR RNA expression
HIV suppression (GFP) in BRD4-KO cells [3]: failed to induce HIV suppression in BRD4-KO cells
HIV suppression in BRD4-KO cells with exogenous BRD4 expression [3]: restored to large extent the ability of ZL0580 to suppress HIV in these cells
inhibition of Gag and 3'-LTR RNA, BRD4-KO cells [3]: largely abrogated in the BRD4-KO cells
recruitment of Tat to HIV promoter (Tat at HIV 5'-LTR): reduced Tat recruitment to HIV promoter
nucleosomal DNA protection in HIV LTR [4]: enhanced nucleosomal DNA protection in the majority of amplicon regions (6-20)
HIV mRNAs (Gag and 3'-LTR RNA levels) [5]: reduces both Gag and 3′-LTR RNA levels
HIV reactivation by LRAs after pre-treatment ([5]; resting J-Lat, single dose 10 μM for 3 days, then SAHA or Prostratin): renders J-Lat cells more resistant to HIV reactivation by SAHA or Prostratin
kinetics of HIV transcription (3'-LTR RNA) ([5]; single treatment 10 μM, PMA-activated or resting, Day 2, 7, 14): suppresses both PMA-stimulated and basal HIV transcription through Day 14 after treatment
toxicity to RV254 PBMCs (RV254 PBMCs): did not cause significant toxicity to these cells
production of HIV particles in cell culture supernatants [6]: significantly reduced
HIV transcription (Gag RNA) in PBMCs (HIV in human PBMCs): reduced HIV transcription in PBMCs
cell-associated HIV DNA (HIV in human PBMCs): did not significantly alter HIV DNA levels
HIV infection in activated CD4 T cells (intracellular p24) [7]: suppress HIV in activated human CD4 T cells in a dose-dependent manner
productive HIV infection in CD4 T cells ([7]; single treatment 8 μM): almost complete loss of productive HIV infection in CD4 T cells
CDK9 binding to Tat (CDK9 binding to Tat): reduced CDK9 binding to Tat
IC50 [8]: > 10000 nM
RNAPII activation (phosphorylation of CTD Ser2) (RNAPII): reduced RNAII activation
IC50 (BRD4 BD1 domain): 163 nM
HIV Gag mRNA ex vivo ([9]; PHA-stimulated RV21 PBMC (n=8)): suppress HIV transcription ex vivo in all eight PBMC samples
reduction of RNA levels in some subjects ([9]; PHA-stimulated RV21 PBMC): greater than 10 fold
dose dependence of suppression of PMA-induced HIV activation ([10]; PMA + 0, 1, 10, 20 μM): suppresses PMA-induced HIV activation in dose-dependent manner
effect on PMA-induced HIV activation (GFP+%) [10]: suppresses PMA-induced HIV activation

Cc1sc2c(c1C)C(c1ccc(Cl)cc1)=N[C@@H](CC(=O)OC(C)(C)C)c1nnc(C)n1-2 [JQ1, reference compound]
BRD4 binding to HIV promoter (BRD4 at HIV 5'-LTR): reduced this binding
activation of latent HIV (GFP expression) [11]: activates HIV
ELL2 protein (ELL2): increased its level
recruitment of Tat to HIV promoter (Tat at HIV 5'-LTR): enhanced binding of Tat to HIV promoter
nucleosomal DNA protection in HIV LTR [4]: reduced nucleosomal DNA protection in several amplicon regions
HIV mRNAs (Gag and 3'-LTR RNA levels) [5]: enhances their levels
binding to BD1 and BD2 of BET proteins [12]: non-selectively binds to both BD1 and BD2 all four BET proteins
CDK9 binding to Tat (CDK9 binding to Tat): enhanced CDK9 binding to Tat
RNAPII activation (phosphorylation of CTD Ser2) (RNAPII): potentiated its activation
effect on PMA-induced HIV activation (GFP+%) [10]: synergistically enhances PMA-stimulated HIV activation

Cc1cc(N=Nc2ccc(S(=O)(=O)NC3CCCC3)cc2)c(N)cc1O [ZL0454]
activation of latent HIV (GFP expression) [11]: modestly activate HIV
HIV infection in activated CD4 T cells (intracellular p24) [7]: did not suppress HIV in CD4 T cells
effect on PMA-induced HIV activation (GFP+%) [10]: synergistically enhanced PMA-induced HIV activation

COC(=O)[C@@H]1CCCN1S(=O)(=O)c1ccc(NC(=O)Nc2cccc(C(F)(F)F)c2)cc1 [ZL0506]
effect on PMA-induced HIV activation (GFP+%) [10]: modestly suppress HIV

— US10975059B2, “Small molecule BRD4 modulators for HIV epigenetic regulation” (The Board of Regents of The University of Texas System, priority 2017, dated 2021)
